Results on 14 molecules are retold here after ChEMBL document CHEMBL1133385, “The de novo design and synthesis of cyclic urea inhibitors of factor Xa: optimization of the S4 ligand” (Bioorg Med Chem Lett, 2000).

The Ki is a dissociation constant, usually derived from enzyme kinetics or from competition with a known ligand. Low values mean a stronger hold on the target, high ones a looser hold on the target. The Cmax is the highest concentration seen after dosing. The term half-life denotes the time in which the quantity being followed falls by half. In general, clearance refers to the rate of elimination divided by the concentration. Low readings indicate a low capacity for elimination, high ones a high capacity for elimination. In general, Vd refers to the apparent volume that relates the amount in the body to the concentration in plasma or blood. A high value points to wide distribution into tissue.

For one data set, the target named is Coagulation factor X (Homo sapiens, UniProt P00742). In words: Inhibition of coagulation factor Xa.
Sequence of Coagulation factor X (P00742 41-179 limits assumed): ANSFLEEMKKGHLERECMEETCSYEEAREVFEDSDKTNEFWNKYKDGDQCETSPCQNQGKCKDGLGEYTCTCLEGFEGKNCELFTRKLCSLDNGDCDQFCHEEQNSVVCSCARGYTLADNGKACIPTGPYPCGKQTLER
Sequence of Coagulation factor X (P00742 235-488 limits assumed): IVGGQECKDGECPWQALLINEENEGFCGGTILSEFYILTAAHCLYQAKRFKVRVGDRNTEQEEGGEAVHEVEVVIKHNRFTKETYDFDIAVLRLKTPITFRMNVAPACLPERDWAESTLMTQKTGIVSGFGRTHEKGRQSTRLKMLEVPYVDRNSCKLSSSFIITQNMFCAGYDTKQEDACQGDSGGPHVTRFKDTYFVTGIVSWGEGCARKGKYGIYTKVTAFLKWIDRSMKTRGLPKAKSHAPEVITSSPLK
Another data set deals with Serine protease 1 (Homo sapiens, UniProt P07477). The data set is described as follows: Inhibitory activity against trypsin.
Sequence of Serine protease 1 (P07477 whole entry): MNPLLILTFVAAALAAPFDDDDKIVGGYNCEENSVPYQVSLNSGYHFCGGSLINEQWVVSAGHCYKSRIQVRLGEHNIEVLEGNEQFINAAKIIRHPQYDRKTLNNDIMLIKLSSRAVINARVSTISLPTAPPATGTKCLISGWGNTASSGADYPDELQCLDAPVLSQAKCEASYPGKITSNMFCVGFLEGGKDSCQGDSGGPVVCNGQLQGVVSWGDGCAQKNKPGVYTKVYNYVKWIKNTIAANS
The target in the next data set is Prothrombin (Homo sapiens, UniProt P00734). The data set is described as follows: Inhibitory activity against thrombin.
The nature of data set [1]: Maximum plasma concentration was determined in rabbit at a dose of 5 mg/kg/h administered i.v. The class given is ADME, organism-based, Oryctolagus cuniculus. The arrangement: dose 5 mg/kg/h, route intravenous. The following applies: iv.
Data set [2] in a line: Half life period was determined. To be noted: rabbit.
Data set [3] can be described thus: Plasma clearance was determined in rabbit at a dose of 5 mg/kg/h administered i.v. To be noted: iv. The class given is ADME, organism-based, Oryctolagus cuniculus. The arrangement: route intravenous.
Data set [4] is described as follows: The compound was evaluated for volume of distribution in rabbit at a dose of 5 mg/kg/h administered i.v. Details: route intravenous. To be noted: in vivo, iv. Format: ADME, organism-based, Oryctolagus cuniculus.

Regarding `N=C(N)c1cccc(N2CCCCN(C3CCN(Cc4cccs4)CC3)C2=O)c1`, the Ki on Coagulation factor X was found to be 80 nM; on Serine protease 1, 170 nM; on Prothrombin, 1400 nM.
Regarding `N=C(N)c1cccc(N2CCCCN(C3CCN(S(=O)(=O)c4cccc(N)c4)CC3)C2=O)c1`, the Ki at Coagulation factor X was determined as 200 nM; at Prothrombin it was 2200 nM.
For the molecule `N=C(N)c1cccc(N2CCCCN(C3CCN(S(=O)(=O)c4ccccc4N)CC3)C2=O)c1`, the Ki was found to be 34 nM on Coagulation factor X, 130 nM on Serine protease 1 and 2400 nM on Prothrombin.
For the molecule `N=C(N)c1cccc(N2CCCCN(C3CCN(Cc4cccnc4)CC3)C2=O)c1`, the Ki at Coagulation factor X was found to be 670 nM; at Prothrombin, 5300 nM.
On to `N=C(N)c1cccc(N2CCCCN(C3CCN(S(=O)(=O)Cc4ccccc4)CC3)C2=O)c1.O=C(O)C(F)(F)F`, for which the Ki at Coagulation factor X is 10 nM; at Serine protease 1 it was 80 nM; at Prothrombin, 500 nM. In addition, the Cmax in data set [1] came out at 4.8 µM. Besides, in data set [2], the half-life was 2.4 min. For the same molecule, in data set [3], the clearance is 68.3 mL/min/kg. The molecule also came in with a Vd in data set [4] of 0.23 L/kg.
`N=C(N)c1cccc(N2CCCCN(C3CCN(C(=O)Cc4ccccc4)CC3)C2=O)c1`: the Ki at Coagulation factor X was 900 nM; on Prothrombin, 11800 nM.
For `Cl.N=C(N)c1cccc(N2CCCCN(C3CCN(S(=O)(=O)c4cccs4)CC3)C2=O)c1`, the Ki came out at 12 nM on Coagulation factor X, 52 nM at Serine protease 1 and 1500 nM on Prothrombin. This molecule also came in with a maximum concentration (Cmax) in data set [1] of 36 µM. In data set [2], this molecule gave a half-life of 66 min. Moreover, in data set [3], the clearance is 11.3 mL/min/kg. In data set [4], this molecule came in with a Vd of 1.1 L/kg.
`N=C(N)c1cccc(N2CCCCN(C3CCN(S(=O)(=O)c4ccccc4)CC3)C2=O)c1`: the inhibitory constant (Ki) at Coagulation factor X was 24 nM; at Serine protease 1, 60 nM; at Prothrombin it was 1600 nM.
As for `N=C(N)c1cccc(N2CCCCN(C3CCN(S(=O)(=O)c4ccc(N)cc4)CC3)C2=O)c1`, the Ki on Coagulation factor X is 71 nM; at Serine protease 1, 190 nM; on Prothrombin, 6300 nM.
Consider `N=C(N)c1cccc(N2CCCCN(C3CCN(C(=O)c4ccccc4)CC3)C2=O)c1`, for which, at Prothrombin, the Ki is over 21000 nM.
With `N=C(N)c1cccc(N2CCCCN(C3CCN(Cc4ccccn4)CC3)C2=O)c1`, the Ki at Coagulation factor X amounted to 12 nM; on Serine protease 1, 120 nM; on Prothrombin, 2600 nM.
On to `N=C(N)c1cccc(N2CCCCN(C3CCN(CCc4ccccc4)CC3)C2=O)c1`, for which the inhibition constant (Ki) came to 220 nM at Coagulation factor X, 1000 nM at Serine protease 1 and 3600 nM at Prothrombin.
As for `N=C(N)c1cccc(N2CCCCN(C3CCN(Cc4ccncc4)CC3)C2=O)c1`, the inhibition constant (Ki) at Coagulation factor X was 200 nM; at Prothrombin, 6800 nM.
Regarding `N=C(N)c1cccc(N2CCCCN(C3CCN(S(=O)(=O)Cc4ccccn4)CC3)C2=O)c1.O=C(O)C(F)(F)F.O=C(O)C(F)(F)F`, the values for the Ki at Coagulation factor X, on Serine protease 1 and on Prothrombin were 10 nM, 57 nM and 500 nM, respectively. The molecule also returned a Cmax in data set [1] of 2.4 µM. Besides, in data set [2], the half-life was 1.8 min. This molecule showed a clearance in data set [3] of 132 mL/min/kg. In addition, the Vd in data set [4] came to 0.34 L/kg.
